Source: patent publication US20110118304A1, “METHOD FOR TREATING OVER-EATING DISORDERS” (NeuroSearch A/S, priority 2007, published 2011)

Tested on: Diet-Induced Obese Rats
Assay: Effect of tesofensine on food-intake in diet-induced obese rats
Type: in vivo, male Sprague-Dawley rats
Conditions: single subcutaneous injection of 1,5 mg/kg at lights out; diet-induced obese rats on high-fat diet; versus vehicle (saline); FIG. 1
Protocol: These rats were from 3-5 weeks of age only given access to a high-fat diet (#12266B; 31.8% kcal from fat, energy density […], Research Diets, New Jersey). After 17 weeks on high-fat diet, animals were stratified according to body weight. Tesofensine was injected in different doses to male Sprague-Dawley rats. Vehicle (saline), or tesofensine at different doses (from 0,5 mg/kg to 2,0 mg/kg) was administered as a single subcutaneous injection at lights out. The level of food-intake was continuously determined over the next 18 hours in an automated food-delivering system.
In FIG. 1, the level of food-intake over night is illustrated of two groups of animals; receiving either a single dose of 1,5 mg/kg tesofensine (triangles) or vehicle (squares).
In FIG. 2, a relation between increasing doses of tesofensine and the accumulated food-intake over a 18 h observation is shown.

SMILES: CCOC[C@@H]1[C@@H](c2ccc(Cl)c(Cl)c2)C[C@@H]2CC[C@H]1N2C [tesofensine, (1R,2R,3S,5S)-3-(3,4-dichlorophenyl)-2-(ethoxymethyl)-8-methyl-8-azabicyclo[3.2.1]octane]
- level of food-intake over night: inhibits food intake over night
